For 13 molecules, Activity results are on record in ChEMBL document CHEMBL3044567, “Synthesis and biological evaluation of novel condensed pyrimidinylmethylsulfinylbenzimidazoles as antiulcer agent” (2013).

Molecules are shown by their SMILES.

Type in all cases: functional, Stomach
In experiment [1] the test system is Rattus norvegicus. Briefly: Antiulcer activity in Wistar Rattus norvegicus (rat) assessed as decrease in total acidity of gastric secretions at 0.1158 mM/kg, po administered 1 hr prior to pylorous ligation measured after 19 hr by titRattus norvegicus (rat)ion assay relative to untreated control. Also noted: scale not given: the % may be the effect or the level left.

Experiment [2] concerns Rattus norvegicus. Briefly: Antiulcer activity in Wistar Rattus norvegicus (rat) assessed as decrease in total acidity of gastric secretions at 0.0579 mM/kg, po administered 1 hr prior to pylorous ligation measured after 19 hr by titRattus norvegicus (rat)ion assay relative to untreated control. Also noted: scale not given: the % may be the effect or the level left.
In experiment [3] the test system is Rattus norvegicus. Briefly: Antiulcer activity in Wistar Rattus norvegicus (rat) assessed as decrease in total acidity of gastric secretions at 0.0289 mM/kg, po administered 1 hr prior to pylorous ligation measured after 19 hr by titRattus norvegicus (rat)ion assay relative to untreated control. Also noted: scale not given: the % may be the effect or the level left.

Experiment [4] deals with Rattus norvegicus. Briefly: Antiulcer activity in Wistar Rattus norvegicus (rat) assessed as increase in pH of gastric secretions at 0.1158 mM/kg, po administered 1 hr prior to pylorous ligation measured after 19 hr by digital pH metric analysis relative to untreated control.
Experiment [5] has as its system Rattus norvegicus. Description: Antiulcer activity in Wistar Rattus norvegicus (rat) assessed as increase in pH of gastric secretions at 0.0579 mM/kg, po administered 1 hr prior to pylorous ligation measured after 19 hr by digital pH metric analysis relative to untreated control.
Experiment [6] deals with Rattus norvegicus. Briefly: Antiulcer activity in Wistar Rattus norvegicus (rat) assessed as change in pH of gastric secretions at 0.0289 mM/kg, po administered 1 hr prior to pylorous ligation measured after 19 hr by digital pH metric analysis relative to untreated control.
For experiment [7], the system named is Rattus norvegicus. Briefly: Antiulcer activity in Wistar Rattus norvegicus (rat) assessed as decrease in total volume of gastric secretions at 0.1158 mM/kg, po administered 1 hr prior to pylorous ligation measured after 19 hr relative to untreated control. Also noted: scale not given: the % may be the effect or the level left.
The subject of experiment [8] is Rattus norvegicus. Briefly: Antiulcer activity in Wistar Rattus norvegicus (rat) assessed as decrease in total volume of gastric secretions at 0.0579 mM/kg, po administered 1 hr prior to pylorous ligation measured after 19 hr relative to untreated control. Also noted: scale not given: the % may be the effect or the level left.
In experiment [9] the test system is Rattus norvegicus. Description: Antiulcer activity in Wistar Rattus norvegicus (rat) assessed as decrease in total volume of gastric secretions at 0.0289 mM/kg, po administered 1 hr prior to pylorous ligation measured after 19 hr relative to untreated control. Also noted: scale not given: the % may be the effect or the level left.

With `COc1nc(C[S+]([O-])c2nc3ccccc3[nH]2)nc2sc3c(c12)CCCC3` (configuration not stated), the Activity in [1] is recorded as 39.27%; in [2] it was 37.69%; in experiment [3] it was 24.15%; in experiment [4], 23.55%; in experiment [5], 17.33%; in experiment [6], 6.65%. The Activity in experiment [7] came out at 50%; in experiment [8] it was 51.06%; in experiment [9] it was 23.93%.

In the case of `[O-][S+](Cc1nc(OCC(F)(F)F)c2c3c(sc2n1)CCCC3)c1nc2ccccc2[nH]1` (configuration not stated), the Activity in experiment [1] worked out at 52.14%; in [2], 38.14%; in [3], 27.08%; in experiment [4], 14.13%; in [5] it was 6.28%; in experiment [6] it was 5.45%. The values for the Activity in experiment [7], in experiment [8] and in [9] were 34.57%, 29.78% and 60.1%, respectively.

`COc1ccc2[nH]c([S+]([O-])Cc3nc(OC)c4c5c(sc4n3)CCCC5)nc2c1` (configuration not stated): the Activity is 50.33% in experiment [1]; 33.86% in experiment [2]; 29.57% in experiment [3]; 10.33% in [4]; 9.05% in experiment [5]; 1.44% in [6]. Also, the Activity worked out at 57.71% in experiment [7], 77.39% in experiment [8] and 69.94% in [9].

Turning to `COc1nc(C[S+]([O-])c2nc3ccccc3[nH]2)nc2scc(-c3ccccc3)c12` (configuration not stated), the Activity in [1] was found to be 36.79%; in [2], 25.28%; in experiment [3], 23.92%; in experiment [4] it was 9.91%; in [5], 6.19%; in [6] it was 0.72%. For the same molecule, the Activity in [7] was found to be 72.34%; in [8], 61.96%; in [9] it was 70.74%.

Take `[O-][S+](Cc1nc(OCC(F)(F)F)c2c(-c3ccccc3)csc2n1)c1nc2ccccc2[nH]1` (configuration not stated): the Activity was 45.37% in [1]; 26.18% in experiment [2]; 16.93% in experiment [3]; 8.09% in [4]; 0.1% in experiment [5]; 3.69% in experiment [6]. Moreover, the Activity was determined as 50.53% in experiment [7], 45.21% in experiment [8] and 49.46% in experiment [9].

Take `COc1ccc2[nH]c([S+]([O-])Cc3nc(OC)c4c(-c5ccccc5)csc4n3)nc2c1` (configuration not stated): the Activity worked out at 38.6% in experiment [1]; 23.7% in experiment [2]; 17.6% in experiment [3]; 10.84% in experiment [4]; 4.02% in experiment [5]; 3.35% in [6]. In addition, the results for the Activity in experiment [7], in experiment [8] and in [9] were 52.92%, 46.01% and 47.07%, respectively.

Take `COc1nc(C[S+]([O-])c2nc3ccccc3[nH]2)nc2scc(-c3ccc(Cl)cc3)c12` (configuration not stated): the Activity in [1] worked out at 51.46%; in experiment [2], 42.43%; in experiment [3], 32.05%; in experiment [4], 23.31%; in experiment [5], 11.17%; in [6] it was 8.96%. Besides, the Activity was found to be 69.68% in experiment [7], 58.24% in [8] and 52.65% in experiment [9].

As for `[O-][S+](Cc1nc(OCC(F)(F)F)c2c(-c3ccc(Cl)cc3)csc2n1)c1nc2ccccc2[nH]1` (configuration not stated), the Activity in experiment [1] turned out to be 52.82%; in experiment [2], 41.76%; in experiment [3] it was 22.34%; in experiment [4], 32.86%; in [5], 17.97%; in experiment [6], 2.03%. Moreover, the Activity in experiment [7] was determined as 60.37%; in experiment [8] it was 50.26%; in [9], 43.08%.

Consider `COc1ccc2[nH]c([S+]([O-])Cc3nc(OC)c4c(-c5ccc(Cl)cc5)csc4n3)nc2c1` (configuration not stated), for which the Activity in experiment [1] worked out at 37.92%; in experiment [2] it was 22.12%; in experiment [3], 5.41%; in [4] it was 3.048%; in [5] it was 2.25%; in [6] it was 5.41%. For the same molecule, the values for the Activity in [7], in experiment [8] and in experiment [9] were 55.58%, 43.88% and 28.19%, respectively.

With `COc1ccc2[nH]c([S+]([O-])Cc3nc(Cl)c4c5c(sc4n3)CCCC5)nc2c1` (configuration not stated), the Activity was found to be 48.08% in experiment [1]; 41.76% in experiment [2]; 24.37% in experiment [3]; 20.03% in experiment [4]; 11.99% in [5]; 5.07% in [6]. Besides, the Activity was determined as 59.84% in experiment [7], 53.98% in [8] and 44.41% in experiment [9].

Turning to `COc1ccc2[nH]c([S+]([O-])Cc3nc(Cl)c4c(-c5ccccc5)csc4n3)nc2c1` (configuration not stated), the Activity in experiment [1] was found to be 40.18%; in experiment [2], 25.5%; in experiment [3], 20.76%; in [4], 14.36%; in experiment [5], 5.54%; in experiment [6], 5.45%. The Activity in experiment [7] was found to be 76.32%; in [8] it was 68.08%; in experiment [9], 42.02%.

With `COc1ccc2[nH]c([S+]([O-])Cc3nc(Cl)c4c(-c5ccc(Cl)cc5)csc4n3)nc2c1` (configuration not stated), the Activity is reported as 44.01% in [1]; 24.37% in [2]; 18.05% in experiment [3]; 19.72% in experiment [4]; 5.91% in experiment [5]; 1.44% in experiment [6]. Further, the Activity in experiment [7] is given as 73.67%; in experiment [8], 67.28%; in experiment [9], 56.64%.

`COc1ccc2[nH]c([S+]([O-])Cc3ncc(C)c(OC)c3C)nc2c1` (configuration not stated) [OMEPRAZOLE]: the Activity in [1] is 71.55%; in [2], 56.65%; in experiment [3], 49.66%; in experiment [4], 62.67%; in experiment [5] it was 55.79%; in experiment [6], 50.9%. Also, the Activity is listed as 73.93% in experiment [7], 63.55% in experiment [8] and 53.72% in experiment [9].
